We go through 4 compounds from publication PMC4458377 (Biochemistry, 2014).

Test [1] has as its target T1, BAZ2B bromodomain (Homo sapiens, UniProt Q9UIF8).
T1 sequence (Q9UIF8 1868-1972 isoform Q9UIF8-4): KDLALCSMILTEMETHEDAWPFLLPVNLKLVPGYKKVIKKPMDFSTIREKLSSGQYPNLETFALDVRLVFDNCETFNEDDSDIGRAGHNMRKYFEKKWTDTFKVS
The settings on record: acetylated lysine alone; cited from earlier work.

The target in test [2] is T1, BAZ2B bromodomain. As to the kind of experiment: ITC of H3K14ac peptides binding to BAZ2B bromodomain.

`CC(=O)NCCCC[C@H](N)C(=O)O` [Acetylated lysine, N-ε-acetyl lysine]: the “interaction with BAZ2B bromodomain” value in test [1] is reported as “interact only very weakly”.
Usually Kd stands for the concentration at which binding is half-saturated. High values mean a looser complex, low ones a tighter complex. Turning to `CC(=O)NCCCC[C@H](NC(=O)CNC(=O)CNC(=O)[C@@H](NC(=O)[C@H](CO)NC(C)=O)[C@@H](C)O)C(=O)N[C@@H](C)C(=O)N1CCC[C@H]1C(=O)N[C@@H](CCCNC(=N)N)C(=O)N[C@@H](CCCCN)C(N)=O` [Peptide 1], in test [2], the dissociation constant (Kd) was determined as 45 ± 3.3 µM. For the same compound, the “reduction in affinity relative to Peptide 4” value in test [2] (ITC KD ratio) was 2 fold.
In turn, `CC(=O)NCCCC[C@H](NC(=O)CNC(=O)CNC(=O)[C@@H](NC(=O)[C@H](CO)NC(=O)[C@H](CCCCN)NC(C)=O)[C@@H](C)O)C(=O)N[C@@H](C)C(=O)N1CCC[C@H]1C(=O)N[C@@H](CCCNC(=N)N)C(=O)N[C@@H](CCCCN)C(=O)N[C@@H](CCC(N)=O)C(N)=O` [Peptide 3] came in with an equilibrium dissociation constant (Kd) in test [2] of 15.7 ± 1.1 µM.
On the same count and under the same terms, with Ac-KSTGGK(Ac)APRK-NH2 [Peptide 4] the figure was 21.8 ± 1.4 µM.
